Assays:
HDAC3 = HDAC3 (Homo sapiens (Human), UniProt O15379)
HDAC1 = HDAC1 (Homo sapiens (Human), UniProt Q13547); assay: Kinetics of the inhibition of HDAC1; conditions: HDAC1 residence
HDAC1, sequence (Q13547 whole entry): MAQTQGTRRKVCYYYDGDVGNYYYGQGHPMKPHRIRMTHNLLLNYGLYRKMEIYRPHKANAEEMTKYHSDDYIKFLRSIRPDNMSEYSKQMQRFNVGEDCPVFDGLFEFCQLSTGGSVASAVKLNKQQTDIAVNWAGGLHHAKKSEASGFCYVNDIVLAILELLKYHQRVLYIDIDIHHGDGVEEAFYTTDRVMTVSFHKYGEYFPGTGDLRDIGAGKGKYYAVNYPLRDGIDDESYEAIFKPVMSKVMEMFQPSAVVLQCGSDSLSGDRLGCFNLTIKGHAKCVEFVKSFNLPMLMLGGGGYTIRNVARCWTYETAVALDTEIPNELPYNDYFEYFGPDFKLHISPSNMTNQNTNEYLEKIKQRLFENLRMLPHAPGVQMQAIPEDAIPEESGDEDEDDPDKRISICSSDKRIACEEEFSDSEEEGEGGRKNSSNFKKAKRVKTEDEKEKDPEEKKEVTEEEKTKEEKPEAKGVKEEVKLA
Protocol: HDAC1 inactivation kinetic constant was determined by curve-fitting of the plot to a first-order rate equation.

HDAC3, sequence (O15379 whole entry): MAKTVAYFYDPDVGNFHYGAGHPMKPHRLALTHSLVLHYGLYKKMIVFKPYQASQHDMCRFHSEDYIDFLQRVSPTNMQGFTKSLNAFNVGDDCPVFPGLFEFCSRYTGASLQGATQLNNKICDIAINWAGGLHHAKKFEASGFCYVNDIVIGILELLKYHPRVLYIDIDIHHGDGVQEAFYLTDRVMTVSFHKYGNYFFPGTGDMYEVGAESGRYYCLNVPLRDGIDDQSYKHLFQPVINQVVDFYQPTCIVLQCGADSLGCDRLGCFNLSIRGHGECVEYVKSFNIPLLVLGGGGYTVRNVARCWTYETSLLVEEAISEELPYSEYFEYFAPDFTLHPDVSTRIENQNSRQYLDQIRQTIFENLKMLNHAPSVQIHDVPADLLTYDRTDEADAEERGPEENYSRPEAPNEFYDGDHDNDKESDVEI
HDAC3, sequence (Q9Y618 395-489 partner): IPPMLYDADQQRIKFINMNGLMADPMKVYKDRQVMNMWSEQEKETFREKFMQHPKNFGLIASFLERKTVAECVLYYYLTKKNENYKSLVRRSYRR

With `O=C(CCCCCCC(=O)Nc1ccccc1)NO` [SAHA, N1-hydroxy-N8-phenyl-octanediamide, reference compound] the T1/2 (HDAC3) was less than 4 min and the T1/2 (HDAC1) was less than 4 min.

Reference: patent US11377423B2, “Inhibitors of histone deacetylase” (The Broad Institute, Inc., priority 2012, dated 2022)
